This passage reports Activity results from ChEMBL document CHEMBL6115048, “Uncovering α-Selectivity for Liver X Receptor Agonists for Lipotoxic Cancer Therapies” (J Med Chem, 2025).

For data set [1], the target named is T1, Bile acid receptor (Homo sapiens) (UniProt Q96RI1).
T1 sequence (whole entry): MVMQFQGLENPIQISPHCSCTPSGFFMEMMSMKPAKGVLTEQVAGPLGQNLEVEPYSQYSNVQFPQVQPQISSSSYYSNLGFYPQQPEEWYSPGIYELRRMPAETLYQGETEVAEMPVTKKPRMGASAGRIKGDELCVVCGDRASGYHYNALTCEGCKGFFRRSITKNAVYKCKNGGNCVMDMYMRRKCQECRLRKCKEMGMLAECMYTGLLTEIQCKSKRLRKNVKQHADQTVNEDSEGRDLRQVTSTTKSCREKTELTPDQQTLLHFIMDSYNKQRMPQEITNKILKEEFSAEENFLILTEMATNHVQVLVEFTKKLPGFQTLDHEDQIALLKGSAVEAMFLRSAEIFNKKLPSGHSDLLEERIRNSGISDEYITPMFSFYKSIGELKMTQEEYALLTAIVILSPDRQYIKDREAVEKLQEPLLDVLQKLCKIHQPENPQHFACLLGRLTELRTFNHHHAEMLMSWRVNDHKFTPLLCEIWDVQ
Nature of the data set: Agonist activity at FXR (unknown origin) transfected in human HepG2 cells co-transfected with renilla reniformis luciferase reporter at 10 uM incubated for 24 hrs by dual-luciferase reporter gene assay. Type of data set: cell-based. A general note: A reporter such as luciferase makes a cellular process visible.

Data set [2] has as its target T2, Aryl hydrocarbon receptor (Homo sapiens, UniProt P35869).
T2 sequence (P35869 whole entry): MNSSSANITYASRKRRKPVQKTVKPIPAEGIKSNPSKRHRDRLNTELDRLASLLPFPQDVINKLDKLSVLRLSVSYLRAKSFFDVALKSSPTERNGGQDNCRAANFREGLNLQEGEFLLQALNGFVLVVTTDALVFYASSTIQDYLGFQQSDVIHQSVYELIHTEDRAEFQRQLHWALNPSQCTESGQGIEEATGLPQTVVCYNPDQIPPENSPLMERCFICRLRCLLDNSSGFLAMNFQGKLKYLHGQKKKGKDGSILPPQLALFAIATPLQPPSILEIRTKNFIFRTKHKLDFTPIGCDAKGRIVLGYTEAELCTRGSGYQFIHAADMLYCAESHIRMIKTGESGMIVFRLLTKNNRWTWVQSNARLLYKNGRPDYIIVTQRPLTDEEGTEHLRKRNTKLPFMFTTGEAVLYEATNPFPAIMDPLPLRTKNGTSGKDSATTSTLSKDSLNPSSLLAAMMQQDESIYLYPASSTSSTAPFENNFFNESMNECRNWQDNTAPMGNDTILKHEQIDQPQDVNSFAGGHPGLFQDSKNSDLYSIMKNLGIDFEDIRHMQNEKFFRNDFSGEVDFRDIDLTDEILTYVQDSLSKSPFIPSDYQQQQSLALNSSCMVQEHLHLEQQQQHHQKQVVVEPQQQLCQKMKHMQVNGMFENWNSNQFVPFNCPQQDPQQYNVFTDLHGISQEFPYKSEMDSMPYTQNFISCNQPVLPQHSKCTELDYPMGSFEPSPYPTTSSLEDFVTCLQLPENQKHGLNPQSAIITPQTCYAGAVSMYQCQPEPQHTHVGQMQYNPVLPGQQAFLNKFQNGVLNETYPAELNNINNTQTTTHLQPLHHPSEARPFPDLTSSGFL
As to the kind of experiment: Agonist activity at AhR (unknown origin) transfected in human HepG2 cells co-transfected with renilla reniformis luciferase reporter at 10 uM incubated for 24 hrs by dual-luciferase reporter gene assay. As to conditions: hepg2, 24 h. Type of data set: cell-based.

Data set [3] has as its target T3, Nuclear receptor subfamily 1 group I member 3 (Mus musculus, UniProt O35627).
T3 sequence (O35627 whole entry): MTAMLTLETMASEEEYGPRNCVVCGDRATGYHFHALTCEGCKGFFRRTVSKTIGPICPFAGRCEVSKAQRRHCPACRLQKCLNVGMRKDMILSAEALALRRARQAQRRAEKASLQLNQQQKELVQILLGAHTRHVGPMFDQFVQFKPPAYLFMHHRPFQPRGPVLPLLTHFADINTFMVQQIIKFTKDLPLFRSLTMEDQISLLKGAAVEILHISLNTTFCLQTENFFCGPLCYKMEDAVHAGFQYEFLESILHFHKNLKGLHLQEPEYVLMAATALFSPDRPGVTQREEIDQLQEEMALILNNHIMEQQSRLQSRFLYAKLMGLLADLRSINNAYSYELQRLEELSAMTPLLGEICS
As to the kind of experiment: Agonist activity at mouse CAR transfected in human HepG2 cells co-transfected with p2B6-luciferase reporter at 10 uM incubated for 24 hrs by dual-luciferase reporter gene assay. It counts as cell-based. As to conditions: hepg2, 24 h.

For data set [4], the system named is AML12. Nature of the data set: Cytotoxicity against mouse AML12 cells assessed as reduction in cell viability at 0.01 to 100 uM measured after 5 days in presence of sorafenib by CellTiter-Glo assay. It counts as toxicity, cell-based. As to conditions: aml12, 120 h, dose 0.01-100 µM, time 5 day.
The test system of data set [5] is Hepatocellular carcinoma organoid. Nature of the data set: Antiproliferative activity against C57BL/6 mouse Hepatocellular carcinoma organoids harboring myristoylated Akt1 and overexpressing Myc assessed as reduction in cell viability at 1 to 5 uM measured after 5 days in presence of sorafenib by Celltiter-glo assay. It counts as functional, tissue-based. As to conditions: Neoplasm, dose 1-5 µM, time 5.0 day.

Active and inactive are the calls of the source. No cut-off for these calls is given here.

Regarding `O=C1C(Nc2ccc(N3CCCCC3)cc2)=C(c2ccccc2)C(=O)N1Cc1ccccc1`, the outcome in data set [1] was inactive. Moreover, the Activity entry in data set [2] is reported as “Not_active”; in data set [3] it was “Not_active”; in data set [4] it was “Toxic”. Also, in data set [5], the outcome was Active.
